Reference: patent publication US20090170867A1, “TRPV1 ANTAGONISTS INCLUDING SULFONAMIDE SUBSTITUENT AND USES THEREOF” (Shionogi & Co., Ltd., priority 2007, published 2009)
Converted amounts (≈) assume the structure as drawn. Where two headings read alike, the source gives them in different places.

Legend:
human TRPV1 [1] = target: T1, human TRPV1 (Homo sapiens, UniProt Q8NER1); test: Capsaicin-based assay, Protocol 2 (TRPV1/CHO cells, Fluo-4, FLIPR); format: cell-based; conditions: capsaicin 100 nM final, mean ± SEM, number of trials in parentheses, read-out: TRPV1 IC50 Potency, Human Capsaicin CHO (hCAP-CHO)
T1 construct: using primers designed surrounding the complete hTRPV1 open reading frame; expressed in transfected cells; host or cells: CHO-K1 cells stably transfected with pcDNA3.1(-)-hVR1 plasmid
T1 sequence (Q8NER1 whole entry): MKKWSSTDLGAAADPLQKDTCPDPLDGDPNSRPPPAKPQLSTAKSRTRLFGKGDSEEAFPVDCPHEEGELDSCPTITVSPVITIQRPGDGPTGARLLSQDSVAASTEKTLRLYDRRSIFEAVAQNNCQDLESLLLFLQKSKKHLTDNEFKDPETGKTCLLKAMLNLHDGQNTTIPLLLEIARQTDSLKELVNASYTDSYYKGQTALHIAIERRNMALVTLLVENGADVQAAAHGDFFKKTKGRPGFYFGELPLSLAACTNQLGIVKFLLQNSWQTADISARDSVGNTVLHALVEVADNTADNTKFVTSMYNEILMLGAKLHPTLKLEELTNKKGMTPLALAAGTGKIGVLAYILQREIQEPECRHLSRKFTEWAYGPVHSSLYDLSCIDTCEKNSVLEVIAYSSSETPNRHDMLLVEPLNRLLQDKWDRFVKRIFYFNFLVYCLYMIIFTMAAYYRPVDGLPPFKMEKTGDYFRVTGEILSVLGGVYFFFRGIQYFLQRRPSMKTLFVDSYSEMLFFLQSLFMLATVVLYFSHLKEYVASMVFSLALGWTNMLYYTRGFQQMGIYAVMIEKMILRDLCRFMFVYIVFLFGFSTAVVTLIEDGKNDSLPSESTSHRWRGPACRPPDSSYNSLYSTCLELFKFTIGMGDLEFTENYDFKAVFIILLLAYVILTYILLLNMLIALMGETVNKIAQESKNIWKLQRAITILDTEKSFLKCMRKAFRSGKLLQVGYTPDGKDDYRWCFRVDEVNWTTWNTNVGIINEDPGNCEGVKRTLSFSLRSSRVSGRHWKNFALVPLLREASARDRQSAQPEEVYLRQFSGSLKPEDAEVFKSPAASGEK
Summary of the method: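 CHO cells stably transfected with human TRPV1 cDNA, kept under G418 selection, loaded with 3 μM Fluo-4 for 1 h. Calcium fluorescence followed on FLIPR after a 15 s baseline against capsaicin challenge; compounds at final 100 μM to 1.5625 μM, curves fitted over the full time course.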

human TRPV1 [2] = target: T1, human TRPV1; test: pH-based assay, Protocol 2 (TRPV1/CHO cells, Fura-2 AM, FDSS-3000, pH 5.0-5.1); format: cell-based; conditions: H2SO4 agonist, mean ± SEM, number of trials in parentheses, read-out: TRPV1 IC50 Potency, Human pH CHO (hpH-CHO)
Aqueous solubility = format: physicochemical; conditions: aqueous solution
[3] = pH 1.2, simulated gastric fluid, read-out: aqueous solubility at pH 1.2
[4] = pH 6.8, aqueous buffer, read-out: aqueous solubility at pH 6.8

IC50 (human TRPV1 [1]) [µM] | IC50 (human TRPV1 [2]) [µM] | solubility (Aqueous solubility; [3]) [µM] | solubility (Aqueous solubility; [4]) [µM] | Compound
0.108 ± 0.0243 | 0.0629 ± 0.0088 | 1 (≈ 0.454 µg/mL) | 3 (≈ 1.36 µg/mL) | CCOC(=O)c1cnc(C2=CCN(C(=O)Nc3ccc(C(F)(F)F)cc3)CC2)c(Cl)c1 [Compound F2]
0.864 | 0.467 | > 50 | 9.2 (≈ 4.18 µg/mL) | COC(=O)Cc1cnc(C2=CCN(C(=O)Nc3ccc(C(F)(F)F)cc3)CC2)c(Cl)c1 [Compound F6]

Compound | IC50 (human TRPV1 [1]) [µM] | IC50 (human TRPV1 [2]) [µM] | solubility (Aqueous solubility; [3]) [µM] | solubility (Aqueous solubility; [4]) [µM]
O=C(Nc1ccc(C(F)(F)F)cc1)N1CCC(F)(c2ncc([C@H](O)CO)cc2Cl)CC1 [Compound N1, (S)-4-(3-chloro-5-(1,2-dihydroxyethyl)pyridin-2-yl)-4-fluoro-N-(4-(trifluoromethyl)phenyl)piperidine-1-carboxamide] | 0.0387 ± 0.0053 | 0.0063 ± 0.0008 | > 50 | 28 (≈ 12.9 µg/mL)
